How the values were obtained:
glutathione (GSH) = assay: Reactivity Profiling with Glutathione (GSH), half-life by HPLC; conditions: 5 mM glutathione (GSH) in IMDM with 10% FBS
MV4-11 cells = assay: MV4-11 Cell Cytotoxicity Assay (CellTiter-Blue, 72 h); type: cell-based, human; conditions: Homo sapiens, MV4-11; MV-4-11 cells
Outline: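 Viability read-out: CellTiter-Blue, 1 h, fluorescence 560/590 nm. Preceded by 72 h exposure (37° C, 5% CO2) to twofold dilution series from 50 μM, triplicate, 0.5% DMSO vehicle, applied 24 h after plating.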

For COc1cc(C(=O)O)ccc1N(Cc1cc(C2CC2)cc(C(C)(C)C)c1)C(=O)CN(Cc1cc(C(F)(F)F)ccn1)S(=O)(=O)c1c(F)c(F)c(F)c(F)c1F [Compound 1134, 4-(N-(3-(tert-butyl)-5-cyclopropylbenzyl)-2-(N-((4-(trifluoromethyl)pyridin-2-yl)methyl)-(2,3,4,5,6-pentafluoro-phenyl)sulfonamido)acetamido)-3-methoxybenzoic acid], the half-life at 25 μM (glutathione (GSH)) was 142 to 247 min and the IC50 (MV4-11 cells) was 1000 to 3160 nM.

CC(C)(C)c1cc(CN(C(=O)CN(Cc2ccc(C(F)(F)F)cc2)S(=O)(=O)c2c(F)c(F)c(F)c(F)c2F)c2ccc(C(=O)O)cc2OC2CC2)cc(C2CC2)c1 [Compound 1136, 4-(N-(3-(tert-butyl)-5-cyclopropylbenzyl)-2-(N-(4-(trifluoromethyl)benzyl)-(2,3,4,5,6-pentafluoro-phenyl)sulfonamido)acetamido)-3-cyclopropoxybenzoic acid] showed a half-life at 25 μM (glutathione (GSH)) of 554 to 100000 min and an IC50 (MV4-11 cells) of 1000 to 3160 nM.

O=C(O)c1ccc(N(C(=O)CN(Cc2c(F)cc(F)cc2F)S(=O)(=O)c2c(F)c(F)c(F)c(F)c2F)C2CCC2)c(OC2CC2)c1 [Compound 1137, 4-(N-cyclobutyl-2-(N-(2,4,6-trifluorobenzyl)-(2,3,4,5,6-pentafluoro-phenyl)sulfonamido)acetamido)-3-cyclopropoxybenzoic acid] showed a half-life at 25 μM (glutathione (GSH)) of 0.1 to 142 min and an IC50 (MV4-11 cells) of 1000 to 3160 nM.

For COc1cc(C(=O)N(C)S(C)(=O)=O)ccc1N(Cc1cc(C2CC2)cc(C(C)(C)C)c1)C(=O)CN(Cc1cnccc1C(F)(F)F)S(=O)(=O)c1c(F)c(F)c(F)c(F)c1F [Compound 1147, 4-(N-(3-(tert-butyl)-5-cyclopropylbenzyl)-2-(N-((4-(trifluoromethyl)pyridin-3-yl)methyl)-(2,3,4,5,6-pentafluoro-phenyl)sulfonamido)acetamido)-3-methoxy-N-methyl-N-(methylsulfonyl) benzamide], the half-life at 25 μM (glutathione (GSH)) was 554 to 100000 min and the IC50 (MV4-11 cells) was 0.01 to 316 nM.

COc1cc(C(=O)O)ccc1N(Cc1cccc(C(C)(C)C)c1)C(=O)CN(Cc1cnccc1C(F)(F)F)S(=O)(=O)c1c(F)c(F)c(F)c(F)c1F [Compound 1149, 4-(N-(3-(tert-butyl)benzyl)-2-(N-((4-(trifluoromethyl)pyridin-3-yl)methyl)-(2,3,4,5,6-pentafluoro-phenyl)sulfonamido)acetamido)-3-methoxybenzoic acid] was tested, and the half-life at 25 μM (glutathione (GSH)) was 0.1 to 142 min and the IC50 (MV4-11 cells) was 316 to 1000 nM.

For COc1cc(C(=O)O)ccc1N(Cc1cccc(C(C)(C)C)c1)C(=O)CN(Cc1c(F)cc(F)cc1F)S(=O)(=O)c1c(F)c(F)c(F)c(F)c1F [Compound 1150, 4-(N-(3-(tert-butyl)benzyl)-2-(N-(2,4,6-trifluorobenzyl)-(2,3,4,5,6-pentafluoro-phenyl)sulfonamido)acetamido)-3-methoxybenzoic acid], the half-life at 25 μM (glutathione (GSH)) was 0.1 to 142 min and the IC50 (MV4-11 cells) was 0.01 to 316 nM.

Work on COc1cc(C(=O)O)ccc1N(Cc1cc(C2CC2)cc(C(C)(C)C)c1)C(=O)CN(C12CC(C1)C2)S(=O)(=O)c1c(F)c(F)c(F)c(F)c1F [Compound 1152, 4-(2-(N-(bicyclo[1.1.1]pentan-1-yl)-(2,3,4,5,6-pentafluorophenyl)sulfon-amido)-N-(3-(tert-butyl)-5-cyclopropylbenzyl)acetamido)-3-methoxybenzoic acid] yielded a half-life at 25 μM (glutathione (GSH)) of 0.1 to 142 min and an IC50 (MV4-11 cells) of 1000 to 3160 nM.

Work on COc1cc(C(=O)O)ccc1N(Cc1cccc(N2CCCC2)c1)C(=O)CN(Cc1cnccc1C(F)(F)F)S(=O)(=O)c1c(F)c(F)c(F)c(F)c1F [Compound 1153, 3-methoxy-4-(2-(N-((4-(trifluoromethyl)pyridin-3-yl)methyl)-(2,3,4,5,6-pentafluoro-phenyl)sulfonamido)-N-(3-(pyrrolidin-1-yl)benzyl)acetamido) benzoic acid] yielded a half-life at 25 μM (glutathione (GSH)) of 0.1 to 142 min and an IC50 (MV4-11 cells) of 316 to 1000 nM.

In the case of COc1cc(C(=O)O)ccc1N(Cc1ccc2ccccc2c1)C(=O)CN(Cc1cnccc1C(F)(F)F)S(=O)(=O)c1c(F)c(F)c(F)c(F)c1F [Compound 1157, 3-methoxy-4-(N-(naphthalen-2-ylmethyl)-2-(N-((4-(trifluoromethyl)pyridin-3-yl)methyl)-(2,3,4,5,6-pentafluoro-phenyl)sulfonamido)acetamido)benzoic acid], the half-life at 25 μM (glutathione (GSH)) is reported as 0.1 to 142 min and the IC50 (MV4-11 cells) is reported as 1000 to 3160 nM.

For O=C(O)c1ccc(N(Cc2cccc(-n3cccc3)c2)C(=O)CN(Cc2cnccc2C(F)(F)F)S(=O)(=O)c2c(F)c(F)c(F)c(F)c2F)c(OC2CC2)c1 [Compound 1161, 4-(N-(3-(1H-pyrrol-1-yl)benzyl)-2-(N-((4-(trifluoromethyl)pyridin-3-yl)methyl)-(2,3,4,5,6-pentafluoro-phenyl)sulfonamido)acetamido)-3-cyclopropoxybenzoic acid], the half-life at 25 μM (glutathione (GSH)) was 0.1 to 142 min and the IC50 (MV4-11 cells) was 316 to 1000 nM.

In the case of O=C(O)c1ccc(N(Cc2cc(C3CC3)cc(C3CC3)c2)C(=O)CN(Cc2cnccc2C(F)(F)F)S(=O)(=O)c2c(F)c(F)c(F)c(F)c2F)c(OC2CC2)c1 [Compound 1163, 3-cyclopropoxy-4-(N-(3,5-dicyclopropylbenzyl)-2-(N-((4-(trifluoromethyl)pyridin-3-yl)methyl)-(2,3,4,5,6-pentafluoro-phenyl)sulfonamido)acetamido)benzoic acid], the half-life at 25 μM (glutathione (GSH)) is reported as 142 to 247 min and the IC50 (MV4-11 cells) is reported as 0.01 to 316 nM.

Compound COc1cc(C(=O)O)ccc1N(Cc1cc(C2CC2)cc(N2CCCC2)c1)C(=O)CN(Cc1cnccc1C(F)(F)F)S(=O)(=O)c1c(F)c(F)c(F)c(F)c1F [Compound 1165, 4-(N-(3-cyclopropyl-5-(pyrrolidin-1-yl)benzyl)-2-(N-((4-(trifluoromethyl)pyridin-3-yl)methyl)-(2,3,4,5,6-pentafluoro-phenyl)sulfonamido)acetamido)-3-methoxybenzoic acid] has a half-life at 25 μM (glutathione (GSH)) of 0.1 to 142 min and an IC50 (MV4-11 cells) of 316 to 1000 nM.

In the case of COc1cc(C(=O)O)ccc1N(Cc1cc(C2CC2)cc(C(C)(C)C)c1)C(=O)CN(Cc1ncc(F)cc1Cl)S(=O)(=O)c1c(F)c(F)c(F)c(F)c1F [Compound 1179, 4-(N-(3-(tert-butyl)-5-cyclopropylbenzyl)-2-(N-((3-chloro-5-fluoropyridin-2-yl)methyl)-(2,3,4,5,6-pentafluorophenyl)sulfon-amido)acetamido)-3-methoxybenzoic acid], the half-life at 25 μM (glutathione (GSH)) is reported as 142 to 247 min and the IC50 (MV4-11 cells) is reported as 0.01 to 316 nM.

With COc1cc(C(=O)O)ccc1N(Cc1cc(C2CC2)cc(C(C)(C)C)c1)C(=O)CN(Cc1ccc(F)cc1C#N)S(=O)(=O)c1c(F)c(F)c(F)c(F)c1F [Compound 1180, 4-(N-(3-(tert-butyl)-5-cyclopropylbenzyl)-2-(N-(2-cyano-4-fluorobenzyl)-(2,3,4,5,6-pentafluorophenyl)sulfon-amido)acetamido)-3-methoxybenzoic acid] the half-life at 25 μM (glutathione (GSH)) was 142 to 247 min and the IC50 (MV4-11 cells) was 0.01 to 316 nM.

For Cc1cc(C(=O)O)cc(C)c1N(Cc1cc(C2CC2)cc(C(C)(C)C)c1)C(=O)CN(Cc1c(F)c(F)c(F)c(F)c1F)S(=O)(=O)c1c(F)c(F)c(F)c(F)c1F [Compound 1201, 4-(N-(3-(tert-butyl)-5-cyclopropylbenzyl)-2-(N-((perfluorophenyl)methyl)-(2,3,4,5,6-pentafluorophenyl)sulfonamido)acetamido)-3,5-dimethylbenzoic acid], the half-life at 25 μM (glutathione (GSH)) was 554 to 100000 min and the IC50 (MV4-11 cells) was 316 to 1000 nM.

O=C(O)c1ccc(N(Cc2cc(C3CC3)cc(C3CC3)c2)C(=O)CN(Cc2ccc(F)cc2Cl)S(=O)(=O)c2ccc(F)nc2)c(OC2CC2)c1 [Compound 1225, 4-(2-(N-(2-chloro-4-fluorobenzyl)-(6-fluoropyridine)-3-sulfonamido)-N-(3,5-dicyclopropylbenzyl)acetamido)-3-cyclopropoxybenzoic acid] gave a half-life at 25 μM (glutathione (GSH)) of 554 to 100000 min and an IC50 (MV4-11 cells) of 3160 to 100000 nM.

With COc1ccccc1CN(CC(=O)N(Cc1cc(C2CC2)cc(C(C)(C)C)c1)c1ccc(C(=O)O)cc1OC1CC1)S(=O)(=O)c1c(F)c(F)c(F)c(F)c1F [Compound 1234, 4-(N-(3-(tert-butyl)-5-cyclopropylbenzyl)-2-(N-(2-methoxybenzyl)-(2,3,4,5,6-pentafluoro-phenyl)sulfonamido)acetamido)-3-cyclopropoxybenzoic acid] the half-life at 25 μM (glutathione (GSH)) was 247 to 554 min and the IC50 (MV4-11 cells) was 316 to 1000 nM.

Compound CC(C)(C)c1cc(CN(C(=O)CN(Cc2ccccc2OC(F)(F)F)S(=O)(=O)c2c(F)c(F)c(F)c(F)c2F)c2ccc(C(=O)O)cc2OC2CC2)cc(C2CC2)c1 [Compound 1235, 4-(N-(3-(tert-butyl)-5-cyclopropylbenzyl)-2-(N-(2-(trifluoromethoxy)benzyl)-(2,3,4,5,6-pentafluoro-phenyl)sulfonamido)acetamido)-3-cyclopropoxybenzoic acid] has a half-life at 25 μM (glutathione (GSH)) of 554 to 100000 min and an IC50 (MV4-11 cells) of 316 to 1000 nM.

CN(C)c1ccccc1CN(CC(=O)N(Cc1cc(C2CC2)cc(C(C)(C)C)c1)c1ccc(C(=O)O)cc1OC1CC1)S(=O)(=O)c1c(F)c(F)c(F)c(F)c1F [Compound 1236, 4-(N-(3-(tert-butyl)-5-cyclopropylbenzyl)-2-(N-(2-(dimethylamino)benzyl)-(2,3,4,5,6-pentafluorophenyl)sulfon-amido)acetamido)-3-cyclopropoxybenzoic acid] showed a half-life at 25 μM (glutathione (GSH)) of 554 to 100000 min and an IC50 (MV4-11 cells) of 316 to 1000 nM.

CC(C)(C)c1cc(CN(C(=O)CN(Cc2ccccc2N2CCCC2)S(=O)(=O)c2c(F)c(F)c(F)c(F)c2F)c2ccc(C(=O)O)cc2OC2CC2)cc(C2CC2)c1 [Compound 1237, 4-(N-(3-(tert-butyl)-5-cyclopropylbenzyl)-2-(N-(2-(pyrrolidin-1-yl)benzyl)-(2,3,4,5,6-pentafluoro-phenyl)sulfonamido)acetamido)-3-cyclopropoxybenzoic acid] showed a half-life at 25 μM (glutathione (GSH)) of 554 to 100000 min and an IC50 (MV4-11 cells) of 316 to 1000 nM.

From patent US20230159445A1, “STAT INHIBITORY COMPOUNDS AND COMPOSITIONS” (JANPIX LIMITED, priority 2020, published 2023)
